Earlier results as cited in patent US20040002079A1.

Conditions: steady state, red cells vs plasma, different individuals

## [Li] [lithium, Lithium]
  lithium ratio [Li]cell/[Li]pl: 0.2 to 0.8
